Results published in patent US20230065158A1, “OXABICYCLOHEPTANES FOR TREATMENT OF SMALL CELL LUNG CANCER” (Lixte Biotechnology, Inc., priority 2021, published 2023).

Experiments:
MET = MET phosphorylation (Tyr 1234/1235) western blot after HGF stimulation; assay type: cell-based; conditions: HGF 10 min
Source text: FIGS. 4A-4F depict a reactome pathway analysis of PamGene PTKs and STKs after LB-100 treatment of H524 cells and Biolog phenotype MicroArray. […] Table includes 10 carbon sources affected by LB-100 (n=3). […] P<0.001 (***) for control (untreated cells) vs. LB-100. FIG. 4D: Amplex Red Glucose/Oxidase assay kit was used to measure glucose level in cell culture media. […] Glucose concentration detected in initial medium and counted as 100%. Subtracting final medium level of glucose from initial glucose medium concentration yielded % glucose in the medium with cells (n=3). Effect of LB-100 on MET phosphorylation. […] FIG. 4F: H524 cell lysates (control, LB-100, carboplatin and combination (LB-100/carboplatin) were analyzed by western blots to check phosphorylation status of MET at Ser985 and Tyr1234/1235. Actin was used as a loading control (n=3). […]
Whole cell lysates were prepared using RIPA lysis buffer and proteins were detected by immunoblotting using antibodies specific against PP2A A, PP2A C, Phospho-Histone H2AX (S139), MET, pMet (Tyr 1234/1235), Cleaved Caspase 3 and pan-Actin antibodies from CST (City of Industry, CA), Cleaved PARP1 (Santa Cruz Biotechnology, Dallas, Tex.) and pMET (Ser985) (ThermoFisher Scientific, Waltham, Mass.) were used as described previously (22).

H524 and H69 cells = assay: Whole cell Pt accumulation, ICP-MS; assay type: cell-based; conditions: LB100 pretreatment then carboplatin 4 hours, versus carboplatin alone
Protocol: FIGS. 3A-3H depict SCLC cell invasion through HUVEC monolayer. FIGS. 3A-3D: Graphical representation of H524/H69 cell ability to disrupt a confluent HUVEC monolayer using an electrical substrate-impedance sensing system. Arrows indicate time point when cells were added. Inserts show mean values and SD for each group after 20 h of drug treatment. After treatment, cell viability was counted using an Auto T4 Cell Counter (Nexcelom Cellometer). Cell viability was 90-95% for drug-treated groups (n=2). p<0.001 (***) for control (untreated cells) vs. drug combination (LB100/carboplatin). Whole cell Pt accumulation. Graphical representation of LB-100 effect on platinum uptake by SCLC cells. […]
To this end, platinum (Pt) levels were measured in H524 and H69 cells using Inductively Coupled Plasma Mass Spectrometry (ICP-MS). […]
Samples were prepared and analyzed for Pt concentrations at the Isotoparium (California Institute of Technology), using precleaned Teflon beakers (PFA), Optima grade reagents (Fisher Chemical) and 18.2 MΩ Milli-Q water. […] All samples were analyzed using an iCAP RQ (ThermoFisher, Waltham, Mass.) ICP-MS and an SC-2 DX autosampler (Elemental Scientific, Omaha, Nebr.). […] A Pt standard curve (0.001, 0.01, 0.1, 1.0 ppb, Spex Certiprep Assurance, Lot #24-140PTM) was created using the HNO3 stock solution and measured for sample calibration. […]

C[NH+]1CCN(C(=O)C2C(C(=O)O)[C@H]3CC[C@@H]2O3)CC1 (stereo in doubt) [LB-100, 3-[(4-Methylpiperazin-1-yl)carbonyl]-7-oxabicyclo[2.2.1]heptane-2-carboxylic acid]
level of HGF phosphorylation of MET (MET; H69, LB100 20 μM): significantly decreased | MET basal and HGF activated phosphorylation (MET; H524, LB100 5 μM): almost abrogated | Pt level in cells (H524 and H69 cells): enhanced the uptake of Pt
